The results in this text go back to PMC7797525 (iScience, 2020).

Assay [1] concerns the target T1, RecA (Escherichia coli, UniProt P0A7G6).
T1 sequence (P0A7G6 2-353): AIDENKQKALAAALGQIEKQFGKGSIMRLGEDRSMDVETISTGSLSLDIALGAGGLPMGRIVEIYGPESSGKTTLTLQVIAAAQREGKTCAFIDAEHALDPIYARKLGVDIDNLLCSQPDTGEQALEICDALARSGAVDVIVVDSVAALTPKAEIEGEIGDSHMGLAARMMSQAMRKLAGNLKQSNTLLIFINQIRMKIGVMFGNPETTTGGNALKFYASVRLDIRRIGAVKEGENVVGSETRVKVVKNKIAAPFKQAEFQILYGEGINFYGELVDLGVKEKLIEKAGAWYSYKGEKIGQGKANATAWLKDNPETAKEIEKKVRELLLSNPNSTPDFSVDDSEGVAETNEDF
Briefly: isothermal titration calorimetry. In kind it is binding.

Assay [2] has as its target T2, RecA (Escherichia coli, UniProt P0A7G6, Y104A).
T2 sequence (P0A7G6 2-353 Y104A): T1 sequence (P0A7G6 2-353)
Put plainly: isothermal titration calorimetry. In kind it is binding. (Isothermal titration calorimetry measures the heat released or taken up as one component is titrated into another.)

Broadly, the Kd is the free concentration of one partner at which half of the binding sites on the other are occupied at equilibrium, for simple one-to-one binding. Low readings indicate tighter binding, high ones weaker binding. For `Cc1cc(-c2ccc(/N=N/c3ccc4c(S(=O)(=O)O)cc(S(=O)(=O)O)c(N)c4c3O)c(C)c2)ccc1/N=N/c1ccc2c(S(=O)(=O)O)cc(S(=O)(=O)O)c(N)c2c1O` [s06, Evans blue], the Kd on RecA [1] was 11.5 µM.
Turning to `Cc1ccc(C(=O)Nc2ccc(S(=O)(=O)O)c3cc(S(=O)(=O)O)cc(S(=O)(=O)O)c23)cc1NC(=O)c1cccc(NC(=O)Nc2cccc(C(=O)Nc3cc(C(=O)Nc4ccc(S(=O)(=O)O)c5cc(S(=O)(=O)O)cc(S(=O)(=O)O)c45)ccc3C)c2)c1` [cpd01, suramin], the figures for the Kd on RecA [2] and at RecA [1] were 40.2 µM and 17.6 µM, respectively.
In turn, `COc1cc(-c2ccc(N=Nc3ccc4c(S(=O)(=O)O)cc(S(=O)(=O)O)c(N)c4c3O)c(OC)c2)ccc1N=Nc1ccc2c(S(=O)(=O)O)cc(S(=O)(=O)O)c(N)c2c1O` [s05, Chicago sky blue] came in with a Kd on RecA [1] of 18.8 µM.
